Test results as given in ChEMBL document CHEMBL1139408, “Synthesis and calpain inhibitory activity of peptidomimetic compounds with constrained amino acids at the P2 position” (Bioorg Med Chem Lett, 2008).
Where a SMILES comes first, the peptide text is derived from it. [ ]: non-standard residue; d: D form. The star is where a group is joined. Hydrocinnamoyl = O=C(CCc1ccccc1)*; Nle = CCCC[C@H](N)C(=O)O; Ac5c = NC1(C(=O)O)CCCC1; Deg = CCC(N)(CC)C(=O)O

Assays:
[1] = Selectivity ratio of Ki for human liver cathepsin B to Ki for pig erythrocyte mu-calpain
[2] = target: T1, Calpain-1 catalytic subunit (Sus scrofa, UniProt P35750); experiment: Inhibition of pig erythrocyte mu-calpain
T1 sequence (P35750 whole entry): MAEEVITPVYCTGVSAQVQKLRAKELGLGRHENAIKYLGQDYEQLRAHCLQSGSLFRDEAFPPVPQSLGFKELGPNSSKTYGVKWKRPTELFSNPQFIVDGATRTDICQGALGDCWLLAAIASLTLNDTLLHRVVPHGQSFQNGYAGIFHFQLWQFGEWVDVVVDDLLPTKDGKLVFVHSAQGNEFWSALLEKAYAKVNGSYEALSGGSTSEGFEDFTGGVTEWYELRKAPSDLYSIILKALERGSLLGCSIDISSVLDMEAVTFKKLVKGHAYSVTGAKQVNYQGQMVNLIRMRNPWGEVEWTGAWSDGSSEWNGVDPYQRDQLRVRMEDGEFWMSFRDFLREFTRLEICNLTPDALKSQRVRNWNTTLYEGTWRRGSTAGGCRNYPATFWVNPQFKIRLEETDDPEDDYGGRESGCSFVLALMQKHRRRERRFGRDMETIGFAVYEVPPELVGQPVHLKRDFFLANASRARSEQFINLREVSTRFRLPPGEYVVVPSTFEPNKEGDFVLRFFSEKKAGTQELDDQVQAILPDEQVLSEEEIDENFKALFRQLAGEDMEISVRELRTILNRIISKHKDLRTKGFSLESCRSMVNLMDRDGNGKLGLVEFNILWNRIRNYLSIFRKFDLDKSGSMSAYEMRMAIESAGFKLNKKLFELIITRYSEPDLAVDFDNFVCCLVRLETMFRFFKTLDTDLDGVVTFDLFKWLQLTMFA

Cathepsin B = Cathepsin B (Homo sapiens, UniProt P07858); experiment: Inhibition of human liver cathepsin B

CCC(CC)(NC(=O)CCc1ccccc1)C(=O)N[C@H](C=O)Cc1ccccc1 (Hydrocinnamoyl-[Deg]-Phe-aldehyde)
Selectivity ratio [1]: 36.4
Ki [2]: 80 nM
Ki (Cathepsin B): 2910 nM

O=C[C@H](Cc1ccccc1)NC(=O)C1(NC(=O)CCc2ccccc2)CCCC1 (Hydrocinnamoyl-[Ac5c]-Phe-aldehyde)
Selectivity ratio [1]: 0.45
Ki [2]: 1940 nM
Ki (Cathepsin B): 880 nM

CCCC[C@@H](C=O)NC(=O)[C@H](CC(C)C)NC(=O)[C@H](CC(C)C)NC(C)=O (Ac-Leu-Leu-[Nle]-aldehyde)
Ki [2]: 190 nM
Ki (Cathepsin B): 150 nM
